In patent US5523223A, “Ketoester reductase for conversion of keto acid esters to optically active hydroxy acid esters” (priority 1992, dated 1996):
Several values for one entry are separate records, joined by “and”; a condition that tells them apart may be missing. Equal values may be shown once. Read-outs that look alike come from different tables or passages of the source.

Columns and labels:
[1] = test system: KERed from C. parapsilosis; assay: Substrate spectrum of the KERed; type: biochemical, Candida parapsilosis; settings: for Rel. Activity: substrate 8 mM, activity with 5-oxo-hexanoic acid ethyl ester = 100%, NADH 0.2 mM, pH 7.9; for Acceptance as substrate by the KERed (in words): reduction with NADH
Procedure: (§1) For the following investigation, partially purified enzyme (after Q-sepharose chromatography, 67-times enrichment) was used. […]
5-oxohexanoic acid ethyl ester […]
Corresponding to example 3.B, instead of 5-oxohexanoic acid ethyl ester a series of aromatic and aliphatic ketoesters, ketoacids, ketones, diketones and aldehydes were investigated as to whether they could be reduced enzymatically. For this the compounds were added always in 8 mM final concentration. […] The activity with 5-oxo-hexanoic acid ethyl ester was arbitrarily selected as 100%.

[2] = test system: KERed from C. parapsilosis; assay: Inhibition study of the KERed (influence of metal cations and reagents); type: biochemical, Candida parapsilosis
Source text: as §1
5-oxohexanoic acid ethyl ester
TEA-NaOH-buffer, 0.1 M; pH 7.9
The influence of various metal cations and reagents upon the enzymatic activity was investigated in tests in which the test preparation described under example 3.B was used.

[3] = test system: KERed from Candida parapsilosis; assay: Kinetic characterization of the KERed; type: biochemical
[4] = compound 0.1 mM, 35 mM 5-oxohexanoic acid ethyl ester, 0.2 mM NADH, pH 7.9
[5] = compound 1.0 mM, 35 mM 5-oxohexanoic acid ethyl ester, 0.2 mM NADH, pH 7.9
[6] = summary statements of the inhibition study
[7] = referred to 2-butanone, partially purified enzyme

## COC(=O)CC(C)=O
[1]
  Rel. Activity: 67%

## CCOC(=O)CCCC(C)=O
[1]
  Rel. Activity: 100%

## CC(=O)CCCC(=O)O
[1]
  Rel. Activity: 0%

## CCC(=O)CC(=O)OC
[1]
  Rel. Activity: 18%

## CCOC(=O)CC(=O)C(C)C
[1]
  Rel. Activity: 24%

## CCOC(=O)CC(=O)c1ccccc1
[1]
  Rel. Activity: 0%

## CCOC(=O)C(C)C(C)=O (stereo not drawn)
[1]
  Rel. Activity: 70%

## CC(=O)CCC(C)=O
[1]
  Rel. Activity: 46%

## O=C1Nc2ccccc2C1=O
[1]
  Rel. Activity: 0%

## O=C1CCCC(=O)C1
[1]
  Rel. Activity: 0%

## CC1CCC(=O)CC1
[1]
  Rel. Activity: 40%

## CC1CCCCC1=O (stereo not drawn)
[1]
  Rel. Activity: 12%

## CCOC(=O)C1CCCCC1=O (stereo not drawn)
[1]
  Rel. Activity: 16%

## CC(=O)c1ccccc1Cl
[1]
  Rel. Activity: 0%

## CC(=O)C(C)C
[1]
  Rel. Activity: 28%

## CC(=O)C(C)(C)O
[1]
  Rel. Activity: 0%

## COC(CC(C)=O)OC
[1]
  Rel. Activity: 14%

## O=CC1CCCCC1
[1]
  Rel. Activity: 29%

## O[C@@H](CS)[C@@H](O)CS (racemic) [1,4-Dithiothreitol]
[2]; [4]
  Residual Activity: 100%
[2]; [5]
  Residual Activity: 100%
[2]; [6]
  Influence on KERed activity (in words): Stabilization

## CC(=O)C(Cl)Cl [1,1-Dichloroacetone]
[3]; partially purified enzyme
  Km: 176 µM
[3]; [7]
  Vmax: 45%
[1]
  Acceptance as substrate by the KERed (in words): acceptable as substrates

## CCCCO [1-butanol]
[3]; partially purified enzyme
  Km: 2900 µM
[3]; [7]
  Vmax: 47%

## CCCO [1-propanol]
[3]; partially purified enzyme
  Km: 3800 µM
[3]; [7]
  Vmax: 47%

## c1ccc(-c2ccccn2)nc1 [2,2'-bipyridyl]
[2]; 2,2'-bipyridyl 0.05 mM
  Residual Activity: 52%
[2]; 2,2'-bipyridyl 0.5 mM
  Residual Activity: 23%
[2]; [6]
  Influence on KERed activity (in words): Strong inhibition

## CCC(=O)CC(C)=O [2,4-hexanedione]
[1]
  Acceptance as substrate by the KERed (in words): acceptable as substrates

## CC(=O)CC(C)=O [2,4-pentanedione]
[1]
  Acceptance as substrate by the KERed (in words): acceptable as substrates

## CCC(C)=O [2-Butanone]
[3]; partially purified enzyme
  Km: 1480 µM
  Vmax of the reference substrate: 6 U mg
[3]; [7]
  Vmax: 100%
[1]
  Acceptance as substrate by the KERed (in words): acceptable as substrates

## CCCCCCCCC(C)=O [2-decanone]
[3]; partially purified enzyme
  Km: 3960 µM
[3]; [7]
  Vmax: 20%

## CCCCCC(C)=O [2-heptanone]
[3]; partially purified enzyme
  Km: 97 µM
[3]; [7]
  Vmax: 58%

## CCCCC(C)=O [2-hexanone]
[3]; partially purified enzyme
  Km: 54 µM
[3]; [7]
  Vmax: 53%

## CCC(=O)C(C)C [2-methyl-3-pentanone]
[1]
  Acceptance as substrate by the KERed (in words): acceptable as substrates

## CCCCCCCC(C)=O [2-nonanone]
[3]; partially purified enzyme
  Km: 314 µM
[3]; [7]
  Vmax: 45%
[3]; substrate inhibition observed, read-out: Kis (substrate inhibition)
  Ki: 24.9 mM

## CCCCCCC(C)=O [2-octanone]
[3]; partially purified enzyme
  Km: 324 µM
[3]; [7]
  Vmax: 62%
[1]
  Acceptance as substrate by the KERed (in words): acceptable as substrates

## CCCC(C)=O [2-pentanone]
[3]; partially purified enzyme
  Km: 141 µM
[3]; [7]
  Vmax: 62%
[1]
  Acceptance as substrate by the KERed (in words): acceptable as substrates

## CC(C)O [2-propanol]
[3]; partially purified enzyme
  Km: 2210 µM
[3]; [7]
  Vmax: 183%

## CC(=O)C(C)Cl (stereo not drawn) [3-chloro-2-butanone]
[3]; partially purified enzyme
  Km: 442 µM
[3]; [7]
  Vmax: 50%
[1]
  Acceptance as substrate by the KERed (in words): acceptable as substrates

## CC(=O)c1cccc(Cl)c1 [3-chloro-aceto-phenone]
[3]; partially purified enzyme
  Km: 15 µM
[3]; [7]
  Vmax: 32%
[1]
  Acceptance as substrate by the KERed (in words): acceptable as substrates

## CCCCC(=O)CC [3-heptanone]
[3]; partially purified enzyme
  Km: 5600 µM
[3]; [7]
  Vmax: 11%

## CCCC(=O)CC [3-hexanone]
[3]; partially purified enzyme
  Km: 840 µM
[3]; [7]
  Vmax: 10%

## CCCCCC(=O)CC [3-octanone]
[3]; partially purified enzyme
  Km: 11200 µM
[3]; [7]
  Vmax: 12%

## CC(=O)c1ccc(Br)cc1 [4-bromoacetophenone]
[1]
  Acceptance as substrate by the KERed (in words): acceptable as substrates

## CC(=O)c1ccc(Cl)cc1 [4-chloro-acetophenone]
[3]; partially purified enzyme
  Km: 10 µM
[3]; [7]
  Vmax: 19%

## CC(=O)c1ccc(F)cc1 [4-fluoroacetophenone]
[1]
  Acceptance as substrate by the KERed (in words): acceptable as substrates

## CCCC(=O)CCC [4-heptanone]
[3]; partially purified enzyme
  Km: 5300 µM
[3]; [7]
  Vmax: 9%

## CC[C@H](C)O [(S)-2-butanol]
[3]
  Km: 600 µM
  Vmax: 210%

## CC=O [Acetaldehyde]
[3]; partially purified enzyme
  Km: 85 µM
[3]; [7]
  Vmax: 129%
[1]
  Acceptance as substrate by the KERed (in words): acceptable as substrates

## CC(C)=O [Acetone]
[3]
  Km: 1060 µM
[3]; [7]
  Vmax: 97%

## CC(=O)c1ccccc1 [Acetophenone]
[3]; partially purified enzyme
  Km: 49 µM
[3]; [7]
  Vmax: 22%
[1]
  Acceptance as substrate by the KERed (in words): acceptable as substrates

## [Ag+] [Ag^+]
[2]; [4]
  Residual Activity: 0%
[2]; [5]
  Residual Activity: 0%
[2]; [6]
  Influence on KERed activity (in words): Rapid deactivation

## [Ca+2] [Ca^2+]
[2]; [4]
  Residual Activity: 78%
[2]; [5]
  Residual Activity: 68%

## [Co+2] [Co^2+]
[2]; [4]
  Residual Activity: 38%
[2]; [5]
  Residual Activity: 12%
[2]; [6]
  Influence on KERed activity (in words): Rapid deactivation

## [Cu+2] [Cu^2+]
[2]; [4]
  Residual Activity: 0%
[2]; [5]
  Residual Activity: 0%
[2]; [6]
  Influence on KERed activity (in words): Rapid deactivation

## CCOC(=O)OC(=O)OCC [Diethyl Pyrocarbonate]
[2]; [4]
  Residual Activity: 100%
[2]; [5]
  Residual Activity: 100%

## O=C(O)CN(CCN(CC(=O)O)CC(=O)O)CC(=O)O [EDTA]
[2]
  Influence on KERed activity (in words): practically not inhibited
  Residual Activity: 100% and 80%

## CCOC(=O)CC(=O)CC [Ethyl 3-oxopentanoate]
[3]; partially purified enzyme
  Km: 6900 µM
[3]; [7]
  Vmax: 17%

## CCOC(=O)CC(=O)CCl [Ethyl 4-chlor-3-oxo-butanoate]
[3]; partially purified enzyme
  Km: 3560 µM
[3]; [7]
  Vmax: 10%

## CCOC(=O)CC(=O)C(F)(F)F [Ethyl 4-trifluor-3-oxo-butanoate]
[3]; partially purified enzyme
  Km: 2000 µM
[3]; [7]
  Vmax: 11%

## [Fe+3] [Fe^3+]
[2]; [4]
  Residual Activity: 100%

## N[C@@H](CCC(=O)N[C@@H](CS)C(=O)NCC(=O)O)C(=O)O [Glutathione (reduced), Glutathione]
[2]; [4]
  Residual Activity: 100%
[2]; [5]
  Residual Activity: 100%

## [Hg+2] [Hg^2+]
[2]; [4]
  Residual Activity: 0%
[2]; [5]
  Residual Activity: 0%
[2]; [6]
  Influence on KERed activity (in words): Rapid deactivation

## NC(=O)CI [Iodoacetamide]
[2]; [4]
  Residual Activity: 77%
[2]; [5]
  Residual Activity: 17.5%
[2]; [6]
  Influence on KERed activity (in words): Strong inhibition

## CO [Methanol]
[3]; [7]
  Vmax: No Reaction

## NC(=O)C1=CN([C@@H]2O[C@H](COP(=O)(O)OP(=O)(O)OC[C@H]3O[C@@H](n4cnc5c(N)ncnc54)[C@H](O)[C@@H]3O)[C@@H](O)[C@H]2O)C=CC1 [NADH]
[3]; partially purified enzyme
  Km: 38 µM

## NC(=O)C1=CN([C@@H]2O[C@H](COP(=O)(O)OP(=O)(O)OC[C@H]3O[C@@H](n4cnc5c(N)ncnc54)[C@H](OP(=O)(O)O)[C@@H]3O)[C@@H](O)[C@H]2O)C=CC1 [NADPH]
[3]; [7]
  Vmax: No Reaction

## COC(OC)C(C)=O [Pyruvaldehyde-Dimethyl-acetal]
[3]; partially purified enzyme
  Km: 189 µM
[3]; [7]
  Vmax: 24%

## CC(=O)CC(=O)OC(C)(C)C [Tert.-Butyl 3-oxo-butanoate]
[3]; partially purified enzyme
  Km: 356 µM
[3]; [7]
  Vmax: 71%

## CCOC(=O)CC(C)=O [drawing 3]
[1]
  Rel. Activity: 76%

## CCOC(=O)CC(C)=O [drawing 4]
[1]
  Rel. Activity: 61%

## CC(=O)CC(=O)OC(C)(C)C [drawing 5]
[1]
  Rel. Activity: 137%

## CC(=O)CCC(=O)O [drawing 6]
[1]
  Rel. Activity: 0%

## CCOC(=O)CCC(C)=O [drawing 7]
[1]
  Rel. Activity: 76%

## CCOC(=O)CC(=O)C(F)(F)F [drawing 10]
[1]
  Rel. Activity: 21%

## CCOC(=O)CC(=O)CCl [drawing 11]
[1]
  Rel. Activity: 92%

## CCOC(=O)CC(=O)CC [drawing 13]
[1]
  Rel. Activity: 32%

## CCCC(=O)CC(=O)OCC [drawing 14]
[1]
  Rel. Activity: 51%

## CC(=O)CC(C)=O [drawing 18]
[1]
  Rel. Activity: 15%

## CCC(=O)CC(C)=O [drawing 19]
[1]
  Rel. Activity: 46%

## CC(=O)c1ccccc1 [drawing 26]
[1]
  Rel. Activity: 34%

## CC(=O)c1cccc(Cl)c1 [drawing 28]
[1]
  Rel. Activity: 35%

## CC(=O)c1ccc(Br)cc1 [drawing 29]
[1]
  Rel. Activity: 40%

## CC(=O)c1ccc(F)cc1 [drawing 30]
[1]
  Rel. Activity: 40%

## CCC(=O)c1ccccc1 [drawing 31]
[1]
  Rel. Activity: 0%

## CC(=O)C(Cl)Cl [drawing 33]
[1]
  Rel. Activity: 60%

## CC(=O)C(C)Cl (stereo not drawn) [drawing 34]
[1]
  Rel. Activity: 105%

## COCC(C)=O [drawing 35]
[1]
  Rel. Activity: 53%

## CCC(=O)C(C)C [drawing 37]
[1]
  Rel. Activity: 51%

## CCC(C)=O [drawing 38]
[1]
  Rel. Activity: 48%

## CCCC(C)=O [drawing 39]
[1]
  Rel. Activity: 40%

## CCCCCCC(C)=O [drawing 40]
[1]
  Rel. Activity: 54%

## CCCCCC(=O)CC [drawing 41]
[1]
  Rel. Activity: 33%

## CCCC(=O)CC [drawing 43]
[1]
  Rel. Activity: 4%

## COC(OC)C(C)=O [drawing 44]
[1]
  Rel. Activity: 118%

## CC=O [drawing 46]
[1]
  Rel. Activity: 150%

## CCC=O [drawing 47]
[1]
  Rel. Activity: 127%

## CC(C)C=O [drawing 48]
[1]
  Rel. Activity: 178%

## CC(C)C=O [isobutyraldehyde]
[1]
  Acceptance as substrate by the KERed (in words): acceptable as substrates

## COCC(C)=O [methoxy-2-propanone]
[1]
  Acceptance as substrate by the KERed (in words): acceptable as substrates

## CCC=O [propionaldehyde]
[1]
  Acceptance as substrate by the KERed (in words): acceptable as substrates

## CCC(=O)c1ccccc1 [propiophenone]
[1]
  Acceptance as substrate by the KERed (in words): acceptable as substrates
